Measurements taken from ChEMBL document CHEMBL1137691, “Diazinium salts with dihydroxyacetophenone skeleton: Syntheses and antimicrobial activity” (2009).

Legend:
Format in all cases: functional
Bacillus cereus = experiment: Antibacterial activity against Bacillus cereus at 30 ug/disk after 24 hrs by diffusion technique; details: read-out: DIZ
[1] = system: Staphylococcus saprophyticus; experiment: Antibacterial activity against Staphylococcus saprophyticus at 30 ug/disk after 24 hrs by diffusion technique; details: read-out: DIZ
Pseudomonas aeruginosa = experiment: Antibacterial activity against Pseudomonas aeruginosa at 30 ug/disk after 24 hrs by diffusion technique; details: read-out: DIZ
Candida albicans = experiment: Antifungal activity against Candida albicans at 100 ug/disk after 24 hrs by diffusion technique; details: for zone of inhibition at 100 µg/disc: read-out: DIZ
Escherichia coli = experiment: Antibacterial activity against Escherichia coli ATCC 25922 at 30 ug/disk after 24 hrs by diffusion technique; details: ATCC 25922, 24 h, read-out: DIZ
Bacillus subtilis = experiment: Antibacterial activity against Bacillus subtilis at 30 ug/disk after 24 hrs by diffusion technique; details: read-out: DIZ
Staphylococcus aureus = experiment: Antibacterial activity against Staphylococcus aureus ATCC 25923 at 30 ug/disk after 24 hrs by diffusion technique; details: ATCC 25923, 24 h, read-out: DIZ
Micrococcus luteus = experiment: Antibacterial activity against Sarcina lutea ATCC 9341 at 30 ug/disk after 24 hrs by diffusion technique; details: ATCC 9341, 24 h, read-out: DIZ

Compound	zone of inhibition at 30 µg/disc (Bacillus cereus)	zone of inhibition at 30 µg/disc [1]	zone of inhibition at 30 µg/disc (Pseudomonas aeruginosa)	zone of inhibition at 100 µg/disc (Candida albicans)	zone of inhibition at 30 µg/disc (Escherichia coli)	zone of inhibition at 30 µg/disc (Bacillus subtilis)	zone of inhibition at 30 µg/disc (Staphylococcus aureus)	zone of inhibition at 30 µg/disc (Micrococcus luteus)	inhibition zone (IZ) (Candida albicans)
Cc1ccc(-c2ccc[n+](CC(=O)c3ccc(O)c(O)c3)n2)cc1	33 mm	40 mm	16 mm	25 mm	40 mm	35 mm	23 mm	41 mm	–
Cc1cc[n+](CC(=O)c2ccc(O)c(O)c2)cn1	35 mm	35 mm	30 mm	27 mm	41 mm	36 mm	31 mm	40 mm	–
O=C(C[n+]1ccc(O)nc1)c1ccc(O)c(O)c1	32 mm	35 mm	36 mm	28 mm	44 mm	38 mm	33 mm	42 mm	–
O=C(C[n+]1ccccn1)c1ccc(O)c(O)c1	20 mm	15 mm	20 mm	0 mm	30 mm	11 mm	17 mm	30 mm	–
Cc1ccc[n+](CC(=O)c2ccc(O)c(O)c2)n1	29 mm	29 mm	18 mm	15 mm	28 mm	28 mm	26 mm	40 mm	–
O=C(N[C@H](CO)[C@H](O)c1ccc([N+](=O)[O-])cc1)C(Cl)Cl [CHLORAMPHENICOL]	22 mm	23 mm	11 mm	–	22 mm	22 mm	23 mm	38 mm	–
O=C(C[n+]1cccc(-c2ccc(Br)cc2)n1)c1ccc(O)c(O)c1	9 mm	21 mm	15 mm	12 mm	15 mm	16 mm	17 mm	30 mm	–
NYSTATIN	–	–	–	–	–	–	–	–	28 mm
